Data from PubChem BioAssay (NCI).
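Cells were grown in 96-well plates and exposed to each compound for 48 hours at five concentrations; endpoints were interpolated linearly between bracketing concentrations, or set to the highest concentration if not reached. GI50 marks 50% less growth. TGI: total growth inhibition.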

Tests used:
Assay in all cases: NCI tumour cell line growth inhibition, 48 h
[1] = test system: SF-295 CNS
[2] = test system: UO-31 renal
[3] = test system: SK-MEL-2 melanoma
[4] = test system: RXF 393 renal
[5] = test system: KM12 colon
[6] = test system: NCI-H522 lung
[7] = test system: T-47D breast
[8] = test system: M14 melanoma
[9] = test system: A549 NSCLC
[10] = test system: IGROV1 ovarian
[11] = test system: HS 578T breast
[12] = test system: K-562 leukemia
[13] = test system: MDA-MB-435
[14] = test system: HOP-92 NSCLC
[15] = test system: SK-MEL-28 melanoma
[16] = test system: SNB-19 CNS
[17] = test system: MOLT-4 leukemia
[18] = test system: SW-620 colon
[19] = test system: HCC-2998 colon
[20] = test system: NCI/ADR-RES ovarian
[21] = test system: NCI-H460 lung
[22] = test system: BT-549 breast
[23] = test system: PC-3 prostate
[24] = test system: UACC-62 melanoma
[25] = test system: ACHN renal
[26] = test system: CAKI-1 renal
[27] = test system: SF-268 CNS
[28] = test system: HCT-15 colon
[29] = test system: A498 renal

## Nc1nccc(-c2c(-c3ccc(F)cc3)ncn2C2CCC(O)CC2)n1 (stereo not drawn)
[1]
  GI50: 17.7 µM
  TGI: > 25 µM
[2]
  GI50: 1.79 µM
  TGI: > 23.2 µM
[3]
  GI50: 24.7 µM
  TGI: > 25 µM
[4]
  GI50: 4.77 µM
  TGI: > 23.8 µM
[5]
  GI50: 7.82 µM
  TGI: > 25 µM
[6]
  GI50: 5.49 µM
  TGI: > 23.1 µM
[7]
  GI50: 3.56 µM
  TGI: > 19 µM
[8]
  GI50: 14 µM
  TGI: > 25 µM
[9]
  GI50: 4.03 µM
  TGI: > 25 µM
[10]
  GI50: 4.32 µM
  TGI: 24.8 µM
[11]
  GI50: 8.21 µM
  TGI: > 25 µM
[12]
  GI50: 11.9 µM
  TGI: > 25 µM
[13]
  GI50: 6.75 µM
  TGI: > 25 µM
[14]
  GI50: 1.62 µM
  TGI: 17.3 µM
[15]
  GI50: 14.8 µM
  TGI: > 25 µM
[16]
  GI50: 15.6 µM
  TGI: > 25 µM
[17]
  GI50: 22.5 µM
  TGI: > 25 µM
[18]
  GI50: 13.6 µM
  TGI: > 25 µM
[19]
  GI50: 17.3 µM
  TGI: > 25 µM
[20]
  GI50: > 18 µM
  TGI: > 25 µM
[21]
  GI50: 4.95 µM
  TGI: > 25 µM
[22]
  GI50: 11.7 µM
  TGI: > 25 µM
[23]
  GI50: 13.3 µM
  TGI: > 25 µM
[24]
  GI50: 10.6 µM
  TGI: > 25 µM
[25]
  GI50: 2.83 µM
  TGI: > 25 µM
[26]
  GI50: 7.13 µM
  TGI: > 25 µM
[27]
  GI50: 10.2 µM
  TGI: > 25 µM
[28]
  GI50: 7.15 µM
  TGI: > 25 µM
[29]
  GI50: 3.29 µM
  TGI: > 25 µM
